Values joined by “and” are separate entries in the source; they are usually repeats but may differ in a detail not shown here. Identical values can stand only once.
Key:
S. aureus (ATCC 25293) = test: In vitro anti-S. aureus CFU assay; type: cell-based, Staphylococcus aureus; settings: 3 h, pH 5.4; for mean CFU number ± S.D.: metal salt alone, one value per peptide panel
Experimental: (§1) All microbes were grown at 37 °C in Tryptic Soy Broth (TSB; Biolife, Milan, Italy) or Tryptic Soy Agar plates (TSA, Biolife, Milan, Italy). Peptides were tested at a final concentration C = 0.128, 0.064, 0.032 mg/mL, in the presence or absence of ZnCl2 or CuCl2, at a M:L molar ratio 0.9:1. Briefly, all the microbes were expanded in TSB at 37 °C under agitation for 12 h and then sub-cultured by 1:10 dilution in TSB under the same conditions until reaching OD600nm = 0.3–0.4, as measured by spectrophotometric reading using a GENESYS 10S UV–Vis spectrophotometer (Thermo Scientific, Milan, Italy), corresponding to 0.9–1.2 × 10^7 colony forming units (CFU) per mL, 1.5–2 × 10^8 CFU/mL and 2.4–3.2 × 10^8 CFU/mL, for C. albicans, S. aureus and E. coli respectively. The cultures were then centrifuged at 4500 rpm for 10 min in a SL 8 centrifuge (TX-150 Rotor) (Thermo Scientific, Milan, Italy), and the cellular pellets were washed with PBS pH 5.4. Pelletized cultures were then suspended in 10 mL of PBS pH 5.4, then the suspensions were diluted to a final concentration of 10^4 CFU/mL. Aliquots of 100 µl (corresponding to 10^3 CFU) were seeded in each well of a 96-wells plate. 3 µl of TSB at pH 5.4 were added to each well to obtain a final 1.5% TSB concentration in the culture medium. Peptides were serially diluted in PBS pH 5.4 to C = 0.257, 0.128, and 0.064 mg/mL. ZnCl2 and CuCl2 solutions were added where requested to obtain a M:L ratio 0.9:1. 100 µl of the prepared peptides ± ZnCl2/CuCl2 solutions were then added to each well, obtaining the final 0.128, 0.064 and 0.032 mg/mL peptide concentrations in a total 0.2 mL volume. PBS alone and PBS + ZnCl2/CuCl2 solutions were included as controls. The plates were incubated at 37 °C on a platform rocker with slow stirring for 3 and 24 h. At the end of the incubation times, 100 µl aliquots were taken from each sample and diluted in PBS pH 5.4 to be seeded on TSA plates. Specifically, aliquots were diluted 1:10 at 3 h, and 1:200, 1:100,000 and 1:10 at 24 h, for C. albicans, E. coli, and S. aureus respectively. After incubation for 24 h at 37 °C, grown CFUs were enumerated. Samples were assayed in triplicate in two independent experiments. Student’s t-test was used for the evaluation of significance in biological tests; a p value ≤ 0.05 was considered significant.

C. albicans (ATCC 10231) = test: In vitro antifungal CFU assay; type: cell-based, Candida albicans; settings: pH 5.4
Experimental: as §1

E. coli (ATCC 25922) = test: In vitro anti-E. coli CFU assay; type: cell-based, Escherichia coli; settings: pH 5.4; for CFU decrease/increase with respect to untreated controls / mean CFU number ± S.D.: metal salt alone, one value per peptide panel
Experimental: as §1

[1] = same concentration as used with 0.032 mg/mL peptide
[2] = same concentration as used with 0.064 mg/mL peptide
[3] = metal salt alone, same concentration as used with 0.032 mg/mL peptide, 24 h, one value per peptide panel
[4] = metal salt alone, same concentration as used with 0.064 mg/mL peptide, 24 h, one value per peptide panel
[5] = same concentration as used with 0.032 mg/mL peptide, 3 h
[6] = same concentration as used with 0.032 mg/mL peptide, 24 h
[7] = same concentration as used with 0.064 mg/mL peptide, 3 h
[8] = same concentration as used with 0.064 mg/mL peptide, 24 h
[9] = same concentration as used with 0.128 mg/mL peptide, 3 h

| SMILES | mean CFU number ± S.D. (S. aureus (ATCC 25293); [1]) | mean CFU number ± S.D. (S. aureus (ATCC 25293); [2]) | mean CFU number ± S.D. (C. albicans (ATCC 10231); [3]) | CFU decrease/increase with respect to untreated controls (E. coli (ATCC 25922); [5]) | mean CFU number ± S.D. (E. coli (ATCC 25922); [5]) | mean CFU number ± S.D. (E. coli (ATCC 25922); [6]) | mean CFU number ± S.D. (E. coli (ATCC 25922); [7]) | mean CFU number ± S.D. (E. coli (ATCC 25922); [8]) | CFU decrease/increase with respect to untreated controls (E. coli (ATCC 25922); [9]) | mean CFU number ± S.D. (E. coli (ATCC 25922); [9]) | other results |
| --- | --- | --- | --- | --- | --- | --- | --- | --- | --- | --- | --- |
| [Cl][Cu][Cl] [CuCl2, reference compound] | 201 ± 25 CFU and 178 ± 2 CFU | 170 ±17 CFU and 188 ± 62 CFU | 2,184 ± 195 CFU and 1,671 ± 25 CFU and 2,558 ± 367 CFU and 1,800 ± 195 CFU | -36% and -42% | 474 ± 91 CFU and 665 ± 96 CFU | 160 ± 42 CFU and 256 ± 3 CFU | 255 ± 23 CFU and 383 ± 82 CFU | 93 ± 28 CFU and 47 ± 28 CFU | -95% and -92% | 57 ± 4 CFU and 64 ± 24 CFU | mean CFU number ± S.D. (S. aureus (ATCC 25293); same concentration as used with 0.128 mg/mL peptide): 201 ± 23 CFU and 159 ± 22 CFU; mean CFU number ± S.D. (C. albicans (ATCC 10231); [4]): 2,152 ± 228 CFU and 1,697 ± 81 CFU and 2,456 ± 236 CFU and 1,820 ± 125 CFU; mean CFU number ± S.D. (C. albicans (ATCC 10231); metal salt alone, same concentration as used with 0.128 mg/mL peptide, 24 h, one value per peptide panel): 1,816 ± 109 CFU and 2,139 ± 55 CFU and 1,360 ± 68 CFU and 1,946 ± 96 CFU; CFU number reduction by the metal salt alone, over all performed assays (E. coli (ATCC 25922); 3 h): up to 96%; CFU number reduction by the metal salt alone, over all performed assays (E. coli (ATCC 25922); 24 h): up to 96% |
| [Cl-].[Cl-].[Zn+2] [ZnCl2, reference compound] | 178 ± 60 CFU and 121 ± 11 CFU and 125 ± 60 CFU | 84 ± 13 CFU and 100 ± 11 CFU | 1,915 ± 234 CFU and 1,797 ± 162 CFU and 2,249 ± 145 CFU and 1,413.7 ± 348 CFU | -47% and -45% | 449 ± 74 CFU and 559 ± 25 CFU | 170 ± 14 CFU and 238 ± 16 CFU | 249 ± 11 CFU and 329 ± 11 CFU | 163 ± 47 CFU and 235 ± 6 CFU | -95% and -91% | 49 ± 8 CFU and 72 ± 21 CFU | CFU reduction by the metal salt alone compared to controls, over all performed assays (S. aureus (ATCC 25293)): up to 77%; CFU number reduction by the metal salt alone, over all performed assays (C. albicans (ATCC 10231); 3 h): up to 64.9%; CFU number reduction by the metal salt alone, over all performed assays (C. albicans (ATCC 10231); 24 h): ≤ 94%; mean CFU number ± S.D. (C. albicans (ATCC 10231); metal salt alone, same concentration as used with 0.032 mg/mL peptide, 3 h, one value per peptide panel): 94.2 ± 23 CFU and 91 ± 25 CFU and 107 ± 13 CFU; mean CFU number ± S.D. (C. albicans (ATCC 10231); metal salt alone, same concentration as used with 0.064 mg/mL peptide, 3 h, one value per peptide panel): 49 ± 2 CFU and 87 ± 6 CFU and 75.33 ± 25 CFU and 98 ± 15 CFU; CFU decrease/increase with respect to untreated controls (C. albicans (ATCC 10231); [4]): -36% and -40% and -38%; mean CFU number ± S.D. (C. albicans (ATCC 10231); metal salt alone, same concentration as used with 0.128 mg/mL peptide, 3 h, one value per peptide panel): 32 ± 9 CFU and 62 ± 6 CFU and 53 ± 14 CFU and 34.7 ± 9 CFU; CFU decrease/increase with respect to untreated controls (E. coli (ATCC 25922); [6]): -1%; CFU decrease/increase with respect to untreated controls (E. coli (ATCC 25922); [8]): -3% and -5%; mean CFU number ± S.D. (E. coli (ATCC 25922); same concentration as used with 0.128 mg/mL peptide, 24 h): 168 ± 22 CFU |

Source: PMC10600247, “Impact of C- and N-terminal protection on the stability, metal chelation and antimicrobial properties of calcitermin” (Scientific Reports, 2023)
